Source: ChEMBL document CHEMBL3785012, “Cell-penetrating conjugates of pentaglutamylated methotrexate as potential anticancer drugs against resistant tumor cells” (Eur J Med Chem, 2016)
Residues, ends and D or L forms follow the SMILES beside them. *: point of attachment. DAMPA = CN(Cc1cnc2nc(N)nc(N)c2n1)c1ccc(C(=O)*)cc1

Key:
MDA-MB-231 [1] = test: Cytostatic activity against human MDA-MB-231 cells preincubated for 3 hrs followed by serum treatment for 72 hrs measured on day 4 by MTT assay; assay type: functional, cell-based
MCF7 [2] = test: Cytostatic activity against human MCF7 cells preincubated for 3 hrs followed by serum treatment for 72 hrs measured on day 4 by MTT assay; assay type: functional, cell-based
MDA-MB-231 [3] = test: Drug uptake in human MDA-MB-231 cells at 1 to 10 uM preincubated for 90 mins followed by compound wash out and subsequent trypsin addition for 10 mins by 5 (6)-carboxy-fluorescein based flow cytometric analysis; assay type: ADME, cell-based; conditions: mda-mb-231, 10 min
MCF7 [4] = test: Drug uptake in human MCF7 cells at 1 uM preincubated for 90 mins followed by compound wash out and subsequent trypsin addition for 10 mins by 5 (6)-carboxy-fluorescein based flow cytometric analysis; assay type: ADME, cell-based; conditions: mcf7, 10 min
MCF7 [5] = test: Drug uptake in human MCF7 cells at 5 uM preincubated for 90 mins followed by compound wash out and subsequent trypsin addition for 10 mins by 5 (6)-carboxy-fluorescein based flow cytometric analysis; assay type: ADME, cell-based; conditions: mcf7, 10 min
MCF7 [6] = test: Drug uptake in human MCF7 cells at 10 uM preincubated for 90 mins followed by compound wash out and subsequent trypsin addition for 10 mins by 5 (6)-carboxy-fluorescein based flow cytometric analysis; assay type: ADME, cell-based; conditions: mcf7, 10 min
MCF7 [7] = test: Drug uptake in human MCF7 cells at 1 to 10 uM preincubated for 90 mins followed by compound wash out and subsequent trypsin addition for 10 mins by 5 (6)-carboxy-fluorescein based flow cytometric analysis; assay type: ADME, cell-based; conditions: mcf7, 10 min

For `CC(C)C[C@H](NC(=O)[C@H](Cc1ccccc1)NC(=O)CNC(=O)[C@H](CCC(=O)O)NC(=O)[C@H](CCC(=O)O)NC(=O)[C@H](CCC(=O)O)NC(=O)[C@H](CCC(=O)O)NC(=O)[C@H](CCC(=O)O)NC(=O)[C@H](CCC(=O)O)NC(=O)c1ccc(N(C)Cc2cnc3nc(N)nc(N)c3n2)cc1)C(=O)NCC(=O)N[C@@H](CCCNC(=N)N)C(=O)N[C@@H](CCCNC(=N)N)C(=O)N[C@@H](CCCNC(=N)N)C(=O)N[C@@H](CCCNC(=N)N)C(=O)N[C@@H](CCCNC(=N)N)C(=O)N[C@@H](CCCNC(=N)N)C(=O)N[C@@H](CCCNC(=N)N)C(=O)N[C@@H](CCCNC(=N)N)C(=O)O` ({DAMPA}-EEEEEEGFLGRRRRRRRR-OH), the IC50 (MDA-MB-231 [1]) was 100 µM and the IC50 (MCF7 [2]) was > 100 µM.

`N=C(N)NCCC[C@H](NC(=O)[C@H](CCCNC(=N)N)NC(=O)[C@H](CCCNC(=N)N)NC(=O)[C@H](CCCNC(=N)N)NC(=O)[C@H](CCCNC(=N)N)NC(=O)[C@H](CCCNC(=N)N)NC(=O)[C@H](CCCNC(=N)N)NC(=O)[C@@H](N)CCCNC(=N)N)C(=O)O` was tested, and the Drug uptake (MDA-MB-231 [3]) was “Active”, the Flu intensity (MCF7 [4]) was 975 and the IC50 (MDA-MB-231 [1]) was > 100 µM. The IC50 (MCF7 [2]) was 100 µM, the Flu intensity (MCF7 [5]) was < 8669 and the Flu intensity (MCF7 [6]) was < 52928.

`CC(C)C[C@H](NC(=O)[C@H](Cc1ccccc1)NC(=O)CNC(=O)[C@H](CCC(=O)O)NC(=O)c1ccc(N(C)Cc2cnc3nc(N)nc(N)c3n2)cc1)C(=O)NCC(=O)N[C@@H](CCCNC(=N)N)C(=O)N[C@@H](CCCNC(=N)N)C(=O)N[C@@H](CCCNC(=N)N)C(=O)N[C@@H](CCCNC(=N)N)C(=O)N[C@@H](CCCNC(=N)N)C(=O)N[C@@H](CCCNC(=N)N)C(=O)N[C@@H](CCCNC(=N)N)C(=O)N[C@@H](CCCNC(=N)N)C(=O)O` ({DAMPA}-EGFLGRRRRRRRR-OH) was tested, and the IC50 (MDA-MB-231 [1]) was 19.1 µM and the IC50 (MCF7 [2]) was 31.3 µM.

Molecule `CC[C@H](C)[C@H](NC(=O)[C@H](CCCCN)NC(=O)[C@@H](NC(=O)[C@H](CCC(N)=O)NC(=O)[C@H](CCCNC(=N)N)NC(=O)[C@H](CCC(=O)O)NC(=O)c1ccc(N(C)Cc2cnc3nc(N)nc(N)c3n2)cc1)[C@@H](C)CC)C(=O)N[C@@H](Cc1c[nH]c2ccccc12)C(=O)N[C@@H](Cc1ccccc1)C(=O)N[C@@H](CCC(N)=O)C(=O)N[C@@H](CC(N)=O)C(=O)N[C@@H](CCCNC(=N)N)C(=O)N[C@@H](CCCNC(=N)N)C(=O)N[C@@H](CCCCN)C(=O)N[C@@H](Cc1c[nH]c2ccccc12)C(=O)N[C@@H](CCCCN)C(=O)N[C@@H](CCCCN)C(=O)O` ({DAMPA}-ERQIKIWFQNRRKWKK-OH) has an IC50 (MDA-MB-231 [1]) of 12.9 µM and an IC50 (MCF7 [2]) of 40.2 µM.

`CN(Cc1cnc2nc(N)nc(N)c2n1)c1ccc(C(=O)N[C@@H](CCC(=O)O)C(=O)N[C@@H](CCCNC(=N)N)C(=O)N[C@@H](CCCNC(=N)N)C(=O)N[C@@H](CCCNC(=N)N)C(=O)N[C@@H](CCCNC(=N)N)C(=O)N[C@@H](CCCNC(=N)N)C(=O)N[C@@H](CCCNC(=N)N)C(=O)N[C@@H](CCCNC(=N)N)C(=O)N[C@@H](CCCNC(=N)N)C(=O)O)cc1` was tested, and the IC50 (MDA-MB-231 [1]) was 100 µM and the IC50 (MCF7 [2]) was > 100 µM.

`CC[C@H](C)[C@H](NC(=O)[C@H](CCCCN)NC(=O)[C@@H](NC(=O)[C@H](CCC(N)=O)NC(=O)[C@H](CCCNC(=N)N)NC(=O)[C@H](CCC(=O)O)NC(=O)[C@H](CCC(=O)O)NC(=O)[C@H](CCC(=O)O)NC(=O)[C@H](CCC(=O)O)NC(=O)[C@H](CCC(=O)O)NC(=O)[C@H](CCC(=O)O)NC(=O)c1ccc(N(C)Cc2cnc3nc(N)nc(N)c3n2)cc1)[C@@H](C)CC)C(=O)N[C@@H](Cc1c[nH]c2ccccc12)C(=O)N[C@@H](Cc1ccccc1)C(=O)N[C@@H](CCC(N)=O)C(=O)N[C@@H](CC(N)=O)C(=O)N[C@@H](CCCNC(=N)N)C(=O)N[C@@H](CCCNC(=N)N)C(=O)N[C@@H](CCCCN)C(=O)N[C@@H](Cc1c[nH]c2ccccc12)C(=O)N[C@@H](CCCCN)C(=O)N[C@@H](CCCCN)C(=O)O` ({DAMPA}-EEEEEERQIKIWFQNRRKWKK-OH) was tested, and the Drug uptake (MDA-MB-231 [3]) was “Active”, the IC50 (MDA-MB-231 [1]) was 0.1 µM and the IC50 (MCF7 [2]) was > 100 µM. For the same molecule, the Drug uptake (MCF7 [7]) was “Active”.

`CN(Cc1cnc2nc(N)nc(N)c2n1)c1ccc(C(=O)N[C@@H](CCC(=O)O)C(=O)O)cc1` [METHOTREXATE] was tested, and the IC50 (MDA-MB-231 [1]) was > 100 µM and the IC50 (MCF7 [2]) was 0.8 µM.

For `CN(Cc1cnc2nc(N)nc(N)c2n1)c1ccc(C(=O)N[C@@H](CCC(=O)O)C(=O)N[C@@H](CCC(=O)O)C(=O)N[C@@H](CCC(=O)O)C(=O)N[C@@H](CCC(=O)O)C(=O)N[C@@H](CCC(=O)O)C(=O)N[C@@H](CCC(=O)O)C(=O)N[C@@H](CCCNC(=N)N)C(=O)N[C@@H](CCCNC(=N)N)C(=O)N[C@@H](CCCNC(=N)N)C(=O)N[C@@H](CCCNC(=N)N)C(=O)N[C@@H](CCCNC(=N)N)C(=O)N[C@@H](CCCNC(=N)N)C(=O)N[C@@H](CCCNC(=N)N)C(=O)N[C@@H](CCCNC(=N)N)C(=O)O)cc1` ({DAMPA}-EEEEEERRRRRRRR-OH), the Drug uptake (MDA-MB-231 [3]) was “Active”, the IC50 (MDA-MB-231 [1]) was > 100 µM and the IC50 (MCF7 [2]) was > 100 µM. The Drug uptake (MCF7 [7]) was “Active”.

In the case of `CC[C@H](C)[C@H](NC(=O)[C@H](CCCCN)NC(=O)[C@@H](NC(=O)[C@H](CCC(N)=O)NC(=O)[C@H](CCCNC(=N)N)NC(=O)CNC(=O)[C@H](CC(C)C)NC(=O)[C@H](Cc1ccccc1)NC(=O)CNC(=O)[C@H](CCC(=O)O)NC(=O)c1ccc(N(C)Cc2cnc3nc(N)nc(N)c3n2)cc1)[C@@H](C)CC)C(=O)N[C@@H](Cc1c[nH]c2ccccc12)C(=O)N[C@@H](Cc1ccccc1)C(=O)N[C@@H](CCC(N)=O)C(=O)N[C@@H](CC(N)=O)C(=O)N[C@@H](CCCNC(=N)N)C(=O)N[C@@H](CCCNC(=N)N)C(=O)N[C@@H](CCCCN)C(=O)N[C@@H](Cc1c[nH]c2ccccc12)C(=O)N[C@@H](CCCCN)C(=O)N[C@@H](CCCCN)C(=O)O` ({DAMPA}-EGFLGRQIKIWFQNRRKWKK-OH), the Drug uptake (MDA-MB-231 [3]) is reported as “Active”, the IC50 (MDA-MB-231 [1]) is reported as 5.5 µM and the IC50 (MCF7 [2]) is reported as 13.9 µM. For the same molecule, the Drug uptake (MCF7 [7]) was “Active”.

For `CC[C@H](C)[C@H](NC(=O)[C@H](CCCCN)NC(=O)[C@@H](NC(=O)[C@H](CCC(N)=O)NC(=O)[C@H](CCCNC(=N)N)NC(=O)CNC(=O)[C@H](CC(C)C)NC(=O)[C@H](Cc1ccccc1)NC(=O)CNC(=O)[C@H](CCC(=O)O)NC(=O)[C@H](CCC(=O)O)NC(=O)[C@H](CCC(=O)O)NC(=O)[C@H](CCC(=O)O)NC(=O)[C@H](CCC(=O)O)NC(=O)[C@H](CCC(=O)O)NC(=O)c1ccc(N(C)Cc2cnc3nc(N)nc(N)c3n2)cc1)[C@@H](C)CC)C(=O)N[C@@H](Cc1c[nH]c2ccccc12)C(=O)N[C@@H](Cc1ccccc1)C(=O)N[C@@H](CCC(N)=O)C(=O)N[C@@H](CC(N)=O)C(=O)N[C@@H](CCCNC(=N)N)C(=O)N[C@@H](CCCNC(=N)N)C(=O)N[C@@H](CCCCN)C(=O)N[C@@H](Cc1c[nH]c2ccccc12)C(=O)N[C@@H](CCCCN)C(=O)N[C@@H](CCCCN)C(=O)O` ({DAMPA}-EEEEEEGFLGRQIKIWFQNRRKWKK-OH), the Drug uptake (MDA-MB-231 [3]) was “Active”, the IC50 (MDA-MB-231 [1]) was 0.4 µM and the IC50 (MCF7 [2]) was 0.3 µM. For the same molecule, the Drug uptake (MCF7 [7]) was “Active”.
